# Laboratory results reported in PMC10004195, “Novel Dual-Target Kinase Inhibitors of EGFR and ALK Were Designed, Synthesized, and Induced Cell Apoptosis in Non-Small Cell Lung Cancer” (Molecules, 2023).
# Legend:
# [1] = test system: H2228 (EML4-ALK) cells; assay: CCK8 antiproliferative assay, H2228 cells; type: cell-based, human; details: Homo sapiens, NCI-H2228, 72 h, CCK8 assay, 72 h, H2228 (EML4-ALK); read-out: IC50 H2228
# Description: The human cancer cell lines (H1975, H2228) used in this study were purchased from the Guangzhou ginny ou biotechnology Co., Ltd. (Guangzhou, China). The human cancer cell lines (NCI-H522) used in this study were purchased from the Shenzhen Haodi Huatuo Biotechnology Co., LTD (Shenzhen, China). The human cancer cell lines (LOVO, HLF, BJ, LO2) used in this study were purchased from the Laboratory Animal Service Center at Sun Yat-sen University (Guangzhou, China). […] Cell lines LOVO, HLF, BJ, and LO2 were cultivated in DMEM containing 10% (v/v) heat-inactivated fetal bovine serum (FBS), 100 units/mL penicillin, and 100 μg/mL streptomycin.
# [2] = test system: LO2 (human normal liver cells); assay: Cytotoxicity test on nontumorigenic cells, LO2; type: cell-based
# Description: (§1) It is critical to evaluate the balance between the safety and efficacy of drugs for the development of new drugs; thus, we then conducted a cytotoxicity test on […] types of nontumorigenic cell lines from different origins, including LO2 (human normal liver cells), HK2 (human kidney proximal convoluted tubule epithelial cells), HLF (human embryonic lung fibroblast), 293A (human embryonic kidney cells), and HUVEC (human umbilical vein endothelial cells). […] In addition, we evaluated the compound’s safety in vivo by performing acute toxicity tests in mice, and 9j was injected intravenously at concentrations of 100 mg/kg, 150 mg/kg, and 300 mg/kg.
# (§2) A total of 7000 cells per well were seeded in a 96-well plate with at least three technical replicates; then, exposed to different concentrations (10, 5, 1, 0.1, 0.05, 0.01 uM) of the test compounds for 72 h. After the treatment, CCK8 (Sigma, St. Louis, MO, USA) was added to each well under sterile conditions (to a final concentration of 10% of the total volume) and the plates were incubated for 2–4 h at 37 °C. Absorbance was measured at 450 nm in a microplate reader.
# [3] = test system: HLF (human embryonic lung fibroblast); assay: Cytotoxicity test on nontumorigenic cells, HLF; type: cell-based
# Description: as §1, §2
# [4] = test system: HUVEC (human umbilical vein endothelial cells); assay: Cytotoxicity test on nontumorigenic cells, HUVEC; type: cell-based
# Description: as §1, §2
# [5] = test system: nontumorigenic cell lines
# Description: as §1, §2
# [6] = molecular target: EGFR^L858R/T790M (Homo sapiens, UniProt P00533, L858R/T790M); assay: Kinase ELISA assay, EGFR L858R/T790M; type: biochemical; details: read-out: IC50 against EGFR^L858R/T790M
# Experimental: (§3) Four kinases (EGFR, EGFR^L858R/T790M, ALK, and EML4-ALK) were tested using an ELISA assay. […] There was no effect on the wild-type EGFR or ALK kinases triggered by the compound. Consequently, the selection of the compound was good as both compounds balanced IC50 against EGFR and ALK, respectively. […] Following that, fluorescence assays were used to measure the phosphorylation of the EGFR and ALK protein affect with compound 9j at the cellular level. […] Next, WB assay was used to test the protein expression of H1975 and H2228 cells at the concentration of 5, 10, and 100 nM.
# [7] = molecular target: EGFR wild-type kinase (Homo sapiens, UniProt P00533); assay: Kinase ELISA assay, wild-type EGFR; type: biochemical
# Experimental: as §3
# [8] = molecular target: ALK wild-type kinase (Homo sapiens, UniProt Q9UM73); assay: Kinase ELISA assay, wild-type ALK; type: biochemical
# Experimental: as §3
# [9] = test system: phosphorylated EGFR (p-EGFR); assay: Immunofluorescence assay of phosphorylated EGFR; type: cell-based, human; details: fluorescence assay, treatment for 2 to 4 h
# Experimental: as §3
# (§4) Figure 2 (A) The activity of compound 9j against four kinases (EGFR, ALK, EGFR ^L858R T790M, and EML4-ALK). (B) H1975 and H2228 cells were treated with 9j for 2–4 h; the staining for phosphorylated EGFR (p-EGFR) and phosphorylated ALK (p-ALK) was shown as red fluorescence. (C) WB analysis of phosphorylated proteins in drug-treated H1975 and H2228 cells.
# [10] = test system: phosphorylated ALK (p-ALK); assay: Immunofluorescence assay of phosphorylated ALK; type: cell-based, human; details: fluorescence assay, treatment for 2 to 4 h
# Experimental: as §3, §4
# [11] = test system: p-AKT; assay: Western blot, p-AKT; type: cell-based, human; details: WB, 5, 10 and 100 nM, 3 h treatment
# Experimental: as §3
# H1975 (H2228) cells seeded in 60 mm dishes at a density of 5 × 10^5 cells/well were incubated with or without compound 9j (0, 5, 10, 100 nM) for 2–4 h. After treatment, cells were stained as previously described.
# [12] = test system: H1975 cells; assay: Transwell migration and invasion assay; type: cell-based, human
# Experimental: The migration and invasion of tumor cells directly contribute to metastasis. Metastasis is the leading cause of death in cancer patients. To determine the ability of 9j to inhibit tumor cell migration, the cell scratching assay was performed. Following scratching, phase contrast pictures were taken of the scratched and healing cell monolayers.
# Migration assay was performed using an 8 um pore Boyden chamber (24-well, #353097, Corning, NY, USA), and incubated in the presence or absence of compound 9j. A total of 50,000 cells were seeded in serum-free medium in the top chamber and allowed to migrate for 48 h toward the bottom chamber containing 10% fetal bovine serum medium. Cells were fixed and permeabilized with cold 70% ethanol and methanol, and stained with 0.4% crystal violet. The average number of migrating cells was evaluated from at least four independent microscope fields.
# ALK wild-type kinase, sequence (Q9UM73 19-1620): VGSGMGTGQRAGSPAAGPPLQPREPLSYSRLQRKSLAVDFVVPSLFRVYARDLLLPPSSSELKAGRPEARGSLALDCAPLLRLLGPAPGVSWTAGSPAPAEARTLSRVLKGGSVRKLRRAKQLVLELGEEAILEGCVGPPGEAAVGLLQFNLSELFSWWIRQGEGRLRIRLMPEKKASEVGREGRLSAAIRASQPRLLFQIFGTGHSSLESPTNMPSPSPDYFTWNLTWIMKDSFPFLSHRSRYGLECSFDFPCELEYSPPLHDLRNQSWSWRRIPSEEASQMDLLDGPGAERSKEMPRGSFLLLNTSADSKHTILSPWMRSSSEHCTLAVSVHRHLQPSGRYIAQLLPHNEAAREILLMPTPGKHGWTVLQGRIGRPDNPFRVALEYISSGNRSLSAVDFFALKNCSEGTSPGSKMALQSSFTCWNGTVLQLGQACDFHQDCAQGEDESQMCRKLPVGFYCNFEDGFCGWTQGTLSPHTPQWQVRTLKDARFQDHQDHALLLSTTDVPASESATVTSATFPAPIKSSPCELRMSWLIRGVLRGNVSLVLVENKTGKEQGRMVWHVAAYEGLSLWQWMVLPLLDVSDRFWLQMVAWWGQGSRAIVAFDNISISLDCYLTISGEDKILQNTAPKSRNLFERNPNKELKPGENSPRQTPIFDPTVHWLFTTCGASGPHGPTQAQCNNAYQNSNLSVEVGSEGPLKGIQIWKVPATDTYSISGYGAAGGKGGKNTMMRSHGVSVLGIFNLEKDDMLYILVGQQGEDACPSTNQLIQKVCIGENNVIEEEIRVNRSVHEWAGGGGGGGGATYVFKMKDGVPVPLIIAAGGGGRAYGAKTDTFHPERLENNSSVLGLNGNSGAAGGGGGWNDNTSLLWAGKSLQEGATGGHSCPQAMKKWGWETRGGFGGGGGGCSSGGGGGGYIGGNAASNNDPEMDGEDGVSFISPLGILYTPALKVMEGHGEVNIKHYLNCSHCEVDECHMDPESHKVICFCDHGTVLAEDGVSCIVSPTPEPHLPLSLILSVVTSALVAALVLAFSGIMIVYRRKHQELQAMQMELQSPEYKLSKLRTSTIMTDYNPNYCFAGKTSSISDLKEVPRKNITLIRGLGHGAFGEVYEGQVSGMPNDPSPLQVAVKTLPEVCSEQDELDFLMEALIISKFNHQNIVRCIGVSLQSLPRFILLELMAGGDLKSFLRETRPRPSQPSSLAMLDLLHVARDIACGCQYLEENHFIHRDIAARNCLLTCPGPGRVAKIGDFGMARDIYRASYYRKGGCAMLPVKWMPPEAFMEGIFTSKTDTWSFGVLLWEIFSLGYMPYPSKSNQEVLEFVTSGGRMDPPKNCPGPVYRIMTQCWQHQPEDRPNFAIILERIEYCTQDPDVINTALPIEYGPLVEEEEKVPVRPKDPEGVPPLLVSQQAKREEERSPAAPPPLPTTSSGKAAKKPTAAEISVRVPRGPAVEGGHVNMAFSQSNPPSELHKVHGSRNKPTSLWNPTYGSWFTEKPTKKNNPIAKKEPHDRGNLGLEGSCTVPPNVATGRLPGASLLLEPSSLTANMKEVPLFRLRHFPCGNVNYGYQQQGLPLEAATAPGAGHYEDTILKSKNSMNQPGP
# EGFR^L858R/T790M, sequence (P00533 25-1210 T790M/L858R): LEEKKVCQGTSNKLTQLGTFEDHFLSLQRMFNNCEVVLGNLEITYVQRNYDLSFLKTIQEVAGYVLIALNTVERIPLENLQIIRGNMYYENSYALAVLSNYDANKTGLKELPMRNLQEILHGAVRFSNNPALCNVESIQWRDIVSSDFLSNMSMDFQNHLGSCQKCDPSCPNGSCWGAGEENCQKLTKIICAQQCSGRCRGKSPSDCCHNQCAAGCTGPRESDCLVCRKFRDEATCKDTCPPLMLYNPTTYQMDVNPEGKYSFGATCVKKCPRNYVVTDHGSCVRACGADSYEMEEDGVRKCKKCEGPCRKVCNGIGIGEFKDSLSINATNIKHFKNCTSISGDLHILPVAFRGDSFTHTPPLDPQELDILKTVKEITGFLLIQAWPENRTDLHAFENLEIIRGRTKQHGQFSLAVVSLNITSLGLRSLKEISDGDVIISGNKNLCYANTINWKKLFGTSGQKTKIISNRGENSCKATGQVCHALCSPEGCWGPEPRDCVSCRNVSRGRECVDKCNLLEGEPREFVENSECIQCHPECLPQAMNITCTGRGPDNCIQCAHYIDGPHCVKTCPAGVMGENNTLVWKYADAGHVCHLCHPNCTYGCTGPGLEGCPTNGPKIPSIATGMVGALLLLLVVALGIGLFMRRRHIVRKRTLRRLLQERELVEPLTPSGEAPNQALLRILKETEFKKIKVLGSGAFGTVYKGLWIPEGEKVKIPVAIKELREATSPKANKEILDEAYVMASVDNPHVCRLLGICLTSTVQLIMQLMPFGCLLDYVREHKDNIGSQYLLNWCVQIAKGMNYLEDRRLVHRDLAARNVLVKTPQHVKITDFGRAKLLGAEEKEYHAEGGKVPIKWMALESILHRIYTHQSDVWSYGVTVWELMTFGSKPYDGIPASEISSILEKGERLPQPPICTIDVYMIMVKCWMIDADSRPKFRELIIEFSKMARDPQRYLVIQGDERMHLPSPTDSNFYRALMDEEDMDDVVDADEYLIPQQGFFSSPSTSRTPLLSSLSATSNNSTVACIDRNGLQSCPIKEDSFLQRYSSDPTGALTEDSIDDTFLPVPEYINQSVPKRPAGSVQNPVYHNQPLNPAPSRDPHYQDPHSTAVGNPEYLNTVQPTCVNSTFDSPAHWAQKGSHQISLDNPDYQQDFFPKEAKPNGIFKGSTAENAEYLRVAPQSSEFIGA
# EGFR wild-type kinase, sequence (P00533 25-1210): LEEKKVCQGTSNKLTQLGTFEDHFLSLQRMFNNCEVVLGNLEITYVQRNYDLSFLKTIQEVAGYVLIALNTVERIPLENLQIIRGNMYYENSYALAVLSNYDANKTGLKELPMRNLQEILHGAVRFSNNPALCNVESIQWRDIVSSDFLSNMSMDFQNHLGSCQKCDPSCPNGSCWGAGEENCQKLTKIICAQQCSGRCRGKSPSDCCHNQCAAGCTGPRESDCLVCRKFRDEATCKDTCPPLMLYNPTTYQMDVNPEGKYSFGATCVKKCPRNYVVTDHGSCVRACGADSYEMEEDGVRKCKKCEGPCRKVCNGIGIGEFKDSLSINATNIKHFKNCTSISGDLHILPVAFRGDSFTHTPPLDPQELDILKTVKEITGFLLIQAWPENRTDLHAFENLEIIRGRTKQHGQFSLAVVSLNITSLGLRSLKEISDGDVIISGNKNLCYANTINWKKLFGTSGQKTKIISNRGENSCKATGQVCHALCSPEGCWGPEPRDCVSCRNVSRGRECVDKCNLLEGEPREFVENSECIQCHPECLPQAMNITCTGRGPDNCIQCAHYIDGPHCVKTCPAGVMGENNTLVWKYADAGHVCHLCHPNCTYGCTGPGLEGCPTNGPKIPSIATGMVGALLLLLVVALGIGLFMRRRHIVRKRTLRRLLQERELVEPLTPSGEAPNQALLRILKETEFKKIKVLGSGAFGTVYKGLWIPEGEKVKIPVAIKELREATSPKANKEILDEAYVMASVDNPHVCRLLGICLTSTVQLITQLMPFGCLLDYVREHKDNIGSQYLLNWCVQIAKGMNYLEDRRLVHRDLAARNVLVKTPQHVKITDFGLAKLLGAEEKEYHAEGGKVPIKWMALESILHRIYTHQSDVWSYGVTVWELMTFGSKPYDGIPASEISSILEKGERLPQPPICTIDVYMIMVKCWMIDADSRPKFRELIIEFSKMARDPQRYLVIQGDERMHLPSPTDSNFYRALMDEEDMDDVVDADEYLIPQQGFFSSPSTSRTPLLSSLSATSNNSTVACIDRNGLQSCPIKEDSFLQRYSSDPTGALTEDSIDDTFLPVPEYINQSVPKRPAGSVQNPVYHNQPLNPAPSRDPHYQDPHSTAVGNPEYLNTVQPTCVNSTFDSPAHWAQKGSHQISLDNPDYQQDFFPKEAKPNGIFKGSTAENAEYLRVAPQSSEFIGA
compound,measurement,setting,value
"C=CC(=O)Nc1cc(Nc2ncc(Cl)c(Nc3ccc(Cl)cc3[S+]([O-])C(C)C)n2)c(OC)cc1C1CCN(C)CC1 (stereo not drawn) [9j, N-(5-((5-Chloro-4-((4-chloro-2-(isopropylsulfinyl)phenyl)amino)pyrimidin-2-yl)amino)-4-methoxy-2-(1-methylpiperidin-4-yl)phenyl)acrylamide]",IC50,[1],81.8 ± 20 nM
same,IC50,"[2]; Homo sapiens, LO2, mean ± SE, read-out: Toxicity to normal cells, IC50 LO2",23960 ± 30 nM
same,"Selectivity Ratio (IC50 human normal cells)/(IC50 H1975), LO2",[2]; LO2 vs H1975,306.1
same,"Selectivity Ratio (IC50 human normal cells)/(IC50 H1975), HLF",[3]; HLF vs H1975,357.3
same,IC50,"[3]; Homo sapiens, Fibroblast, HLF, mean ± SE, read-out: Toxicity to normal cells, IC50 HLF",27870 ± 10 nM
same,"Selectivity Ratio (IC50 human normal cells)/(IC50 H1975), HUVEC",[4]; HUVEC vs H1975,273.8
same,IC50,"[4]; Homo sapiens, HUVEC, mean ± SE, read-out: Toxicity to normal cells, IC50 HUVEC",21360 ± 60 nM
same,toxicity toward the nontumorigenic cell lines,[5],very little apparent toxicity
same,IC50,[6],35.7 ± 0.9 nM
same,IC50,[7],236 ± 27 nM
same,IC50,[8],130 ± 15 nM
same,expression level of phosphorylated EGFR protein,[9],decreased significantly
same,expression level of phosphorylated ALK protein,[10],decreased significantly
same,expression of p-AKT,[11],inhibited
same,invasion ability,[12],reduced its invasion ability in a concentration-dependent manner
